The source of these data is article PMC10970644, “Molecular Pharmacology of Gelsemium Alkaloids on Inhibitory Receptors” (International Journal of Molecular Sciences, 2024).

The structures appear in SMILES notation.

In one data set the target is T1, α1β GlyR (Rattus norvegicus, UniProt P07727+P20781).
T1 construct: The cells were transfected with plasmids encoding the following proteins; expressed in transfected cells; host or cells: HEK293 (ATCC CRL-1573)
Put plainly: cell-based. The method, then:
The cells were transfected with plasmids encoding the following proteins: (i). rat GlyR α (1, 2, 3) subunits alone or combined with rat β subunits (Uniprot Accession Numbers: Q546L7, P22771, P20236, P20781); and (ii). rat GABAAR α1 combined with rat β2 and γ2 subunits (Uniprot Accession Numbers: P62813, P63138, P18508). The EGFP expression was used as a marker of successful protein expression. The transfection was performed using Lipofectamine 2000 (Invitrogen, ThermoFisher, Carlsbad, CA, USA) using the fabricant protocol. The plasmids used to express GlyRs and GABAARs have been previously described. To track the successful expression of GlyR β subunits and the GABAA γ2 or β2 subunit, these proteins were subcloned in the pIRES2-EGFP vector. The transfection ratio to obtain β-containing GlyRs was 1:5 of α:β, while the expression of γ2-containing GABAA receptors was 1:2:5 of α:β:γ2 [14, 15]. Chimeric GlyRs were described in a previous report. Site directed mutagenesis was performed by Charm Gene Science Mutagenex LLC. (Cumming, GA, USA). All the constructs were checked by full-length sequencing (SNPSaurus, Eugene, OR, USA).
In brief, patch electrodes (3–4 MΩ) were pulled from borosilicate glasses in a PC-100 puller (Narishige, Tokyo, Japan); then, they were filled with an intracellular solution, which contained (in mM) 120 CsCl, 8 EGTA, 10 HEPES (pH 7.4), 4 MgCl2, 0.5 GTP, and 2 ATP. The extracellular solution contained (in mM) 140 NaCl, 5.4 KCl, 2.0 CaCl2, 1.0 MgCl2, 10 HEPES (pH 7.4), and 10 glucose. Whole-cell patch-clamp recordings were performed at −60 mV with an Axoclamp 200B (Molecular Devices, Sunnyvale, CA, USA) or with HEKA EPC-10 (HEKA Elektronik GmbH, Reutlingen, Germany) amplifiers. […] Brief (3–5 s) pulses of agonist together with alkaloids were applied to cells. Stock solutions of the alkaloids were prepared in high purity distilled water. Aliquots of these stock solutions were diluted in reservoirs containing extracellular solution. […] The concentration–response curve parameters for the alkaloid inhibition (IC50, nH, and the maximal current inhibition) were obtained from the fitted curve of normalized concentration–response data points to the equation Iagonist = Imax (agonist)nH/((agonist)nH + (EC50)nH). The IC50 curves are best-fit mean ± SE from pooled data. […] The inhibition constant (Ki) was calculated using the Cheng–Prusoff equation (Ki = IC50/((2 + ([Agonist]/EC50)^nH)^1/nH − 1). The concentration of agonist corresponds to the sub-saturating agonist concentration used to obtain the IC50 for each alkaloid on a given GlyR subtype.

Data set [1] deals with T2, α3 GlyR (Rattus norvegicus, UniProt P24524).
T2 construct: expressed in transfected cells; host or cells: HEK293 (ATCC CRL-1573)
T2 sequence (P24524 34-464): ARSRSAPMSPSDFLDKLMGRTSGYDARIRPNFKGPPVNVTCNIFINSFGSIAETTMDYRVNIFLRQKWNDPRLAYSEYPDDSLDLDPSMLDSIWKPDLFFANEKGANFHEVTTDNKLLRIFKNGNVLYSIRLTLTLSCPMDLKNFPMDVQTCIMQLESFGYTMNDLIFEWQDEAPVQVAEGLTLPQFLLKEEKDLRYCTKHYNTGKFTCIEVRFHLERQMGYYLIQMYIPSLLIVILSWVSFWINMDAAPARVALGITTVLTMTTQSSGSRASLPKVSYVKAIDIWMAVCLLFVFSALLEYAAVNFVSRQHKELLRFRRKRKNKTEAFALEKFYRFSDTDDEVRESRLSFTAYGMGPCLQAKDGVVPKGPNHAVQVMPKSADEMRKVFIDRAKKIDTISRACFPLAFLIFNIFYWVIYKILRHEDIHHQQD
As to the kind of experiment: cell-based. Format: cell-based.

For data set [2] the following is noted: in vivo studies; cited from earlier work.
Data set [3] has as its target T2, α3 GlyR. The conditions noted are these: cited from earlier work.
The conditions of data set [4]: humans; cited from earlier work.
In a further data set the target is T3, α2 GlyR (Rattus norvegicus, UniProt P22771).
T3 construct: The cells were transfected with plasmids encoding the following proteins; expressed in transfected cells; host or cells: HEK293 (ATCC CRL-1573)
T3 sequence (P22771 28-452): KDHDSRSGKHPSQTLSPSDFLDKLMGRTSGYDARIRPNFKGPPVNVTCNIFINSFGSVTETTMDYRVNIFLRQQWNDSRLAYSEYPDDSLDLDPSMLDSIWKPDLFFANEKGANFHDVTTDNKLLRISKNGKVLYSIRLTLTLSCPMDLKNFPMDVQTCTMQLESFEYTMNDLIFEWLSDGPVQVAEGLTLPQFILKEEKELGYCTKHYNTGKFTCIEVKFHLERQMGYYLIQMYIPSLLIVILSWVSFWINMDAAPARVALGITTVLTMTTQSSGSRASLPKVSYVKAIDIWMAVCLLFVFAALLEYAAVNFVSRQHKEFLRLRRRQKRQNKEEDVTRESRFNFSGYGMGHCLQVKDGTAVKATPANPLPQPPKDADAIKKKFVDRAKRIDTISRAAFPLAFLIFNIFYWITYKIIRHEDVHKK
Particulars: cited from earlier work.

Another data set deals with native GlyRs. Particulars: cited from earlier work.
The next data set deals with Spinal GlyRs. Particulars: cited from earlier work.
Data set [5] deals with recombinant and native GABAARs. Particulars: cited from earlier work.
Setting [6] is: Hill coefficient of inhibition curve.
Where [7] appears, read: percentage change of glycine-evoked current.

T1 sequence (P07727 29-457): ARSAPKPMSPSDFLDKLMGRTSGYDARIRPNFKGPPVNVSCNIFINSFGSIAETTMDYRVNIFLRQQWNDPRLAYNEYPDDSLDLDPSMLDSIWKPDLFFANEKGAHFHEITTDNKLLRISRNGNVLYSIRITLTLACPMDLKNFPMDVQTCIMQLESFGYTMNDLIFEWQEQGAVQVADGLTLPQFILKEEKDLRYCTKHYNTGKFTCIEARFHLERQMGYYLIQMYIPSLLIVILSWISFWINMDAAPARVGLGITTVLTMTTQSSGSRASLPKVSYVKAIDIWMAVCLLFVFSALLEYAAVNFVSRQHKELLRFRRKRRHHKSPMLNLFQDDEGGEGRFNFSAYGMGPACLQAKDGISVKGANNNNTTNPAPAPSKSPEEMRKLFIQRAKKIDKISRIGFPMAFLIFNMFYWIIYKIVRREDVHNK
T1 sequence (P20781 23-496): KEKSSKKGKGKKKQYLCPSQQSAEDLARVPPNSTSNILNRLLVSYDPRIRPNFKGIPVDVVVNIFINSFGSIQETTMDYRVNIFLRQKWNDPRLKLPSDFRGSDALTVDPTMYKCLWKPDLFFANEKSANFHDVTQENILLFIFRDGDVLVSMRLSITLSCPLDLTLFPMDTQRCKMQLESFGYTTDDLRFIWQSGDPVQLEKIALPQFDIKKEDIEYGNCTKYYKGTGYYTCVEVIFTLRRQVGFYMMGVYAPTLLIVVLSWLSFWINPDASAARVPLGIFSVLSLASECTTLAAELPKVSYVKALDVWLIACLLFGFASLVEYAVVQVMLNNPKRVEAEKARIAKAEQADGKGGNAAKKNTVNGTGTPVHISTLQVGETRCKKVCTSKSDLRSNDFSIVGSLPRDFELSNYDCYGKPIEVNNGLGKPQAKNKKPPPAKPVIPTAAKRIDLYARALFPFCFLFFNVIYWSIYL

As for `C=C[C@@]12CN(C)[C@H]3C[C@]14C(=Nc1ccccc14)[C@H]1C[C@@H]2[C@@H]3CO1` [koumine], the values for the IC50 against α1β GlyR and on α3 GlyR [1] were 32.5 ± 13.2 µM and 15.8 ± 4.6 µM, respectively. The nH at α1β GlyR (setting [6]) amounted to 0.9 ± 0.5; on α3 GlyR [1] (setting [6]) it was 0.9 ± 0.2. For the same molecule, the “Maximal Modulation” value on α1β GlyR (setting [7]) is listed as −90.8 ± 2.3%; on α3 GlyR [1] (setting [7]) it was −87.3 ± 4.0%. Further, the inhibitory constant (Ki) at α3 GlyR [1] (calculated using the Cheng–Prussof equation) is 33.9 ± 15.8 µM. For the same molecule, the LD50 entry in [2] was “higher than 50 mg/kg”.

As to `C=C[C@]12CN(C)[C@@H]3[C@H]4CO[C@H](C[C@H]41)[C@]1(C(=O)Nc4ccccc41)[C@@H]32` [gelsemine], the “modulation of currents (in words)” value on α3 GlyR [3] and on α2 GlyR was “concentration-dependent inhibition” throughout. Further, the lethal plasma concentrations in data set [4] was 13 to 30 µg/mL. For the same molecule, the IC50 in the data set with native GlyRs is about 40 µM; in the data set on Spinal GlyRs it was about 42 µM; in [5], 55 to 75 µM. Also, the LD50 result in data set [2] is on record as “higher than 50 mg/kg”.

Turning to `NCC(=O)O` [glycine, reference compound], the EC50 at α3 GlyR [1] (read-out: EC50 of agonist) stood at 150 ± 10 µM.

Usually IC50 stands for the concentration that inhibits the measured activity by half. Usually Ki stands for the equilibrium dissociation constant of an inhibitor or competing ligand from its target. In general, EC50 refers to the concentration at which the effect is half-maximal.
